Measured values from patent US20250129430A1, “HIGH ATP-AFFINITY PROTEIN AS THERAPEUTIC TARGET FOR INTRACTABLE CANCER MOLECULAR SUBTYPES AND INHIBITOR THEREOF” (VeraVerse Co., Ltd., priority 2021, published 2025).

What was measured:
Test in all cases: Cell viability drug screen, 12-point dose-response AUC
Format in all cases: cell-based, human
[1] = test system: MKN74; details: MKN74 cells, 72 hours; for area under the viability curve (AUC), normalized: 12-point dose-response
Method in brief: (§1)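 Viability: luminescence (Glo kit, 15 min RT), normalized to 0.5% DMSO vehicle. Dosing: half-log, 12 concentrations, 72 h. Cells: 5×10^3/well, treated 24 h after plating. Value: trapezoidal AUC, mean of repeats.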

[2] = test system: MKN45; details: 72 hours; for area under the viability curve (AUC), normalized: MKN45 cells, 12-point dose-response
Method in brief: as §1

[3] = test system: YCC3; details: YCC3 cells, 72 hours; for area under the viability curve (AUC), normalized: 12-point dose-response
Method in brief: (§2)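 AUC values represent the area under DMSO-normalized 12-point curves, computed by trapezoid rule and averaged over repeated experiments. Each EMT-type gastric line was exposed to half-log serial concentrations for 72 h at 37 °C, and viability was measured with a Glo luminescence kit.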

[4] = test system: SNU719; details: SNU719 cells, 72 hours; for area under the viability curve (AUC), normalized: 12-point dose-response
Method in brief: as §1

[5] = test system: NCI_N87; details: NCI_N87 cells, 72 hours; for area under the viability curve (AUC), normalized: 12-point dose-response
Method in brief: as §2

[6] = test system: SNU484; details: 72 hours; for area under the viability curve (AUC), normalized: SNU484 cells, 12-point dose-response
Method in brief: as §2

[7] = test system: NCC59; details: NCC59 cells, 72 hours; for area under the viability curve (AUC), normalized: 12-point dose-response
Method in brief: as §2

[8] = test system: SNU638; details: SNU638 cells, 72 hours; for area under the viability curve (AUC), normalized: 12-point dose-response
Method in brief: as §2

[9] = test system: SNU16; details: SNU16 cells, 72 hours; for area under the viability curve (AUC), normalized: 12-point dose-response
Method in brief: as §2

[10] = test system: SK4; details: 72 hours; for area under the viability curve (AUC), normalized: SK4 cells, 12-point dose-response
Method in brief: as §2

[11] = test system: MKN28; details: MKN28 cells, 72 hours; for area under the viability curve (AUC), normalized: 12-point dose-response
Method in brief: as §2

[12] = test system: MKN1; details: MKN1 cells, 72 hours; for area under the viability curve (AUC), normalized: 12-point dose-response
Method in brief: as §2

[13] = test system: OCUM1; details: OCUM1 cells, 72 hours; for area under the viability curve (AUC), normalized: 12-point dose-response
Method in brief: as §2

[14] = test system: NCC24; details: NCC24 cells, 72 hours; for area under the viability curve (AUC), normalized: 12-point dose-response
Method in brief: as §2

[15] = test system: SNU620; details: SNU620 cells, 72 hours; for area under the viability curve (AUC), normalized: 12-point dose-response
Method in brief: as §2

[16] = test system: YCC11; details: 72 hours; for area under the viability curve (AUC), normalized: YCC11 cells, 12-point dose-response
Method in brief: as §2

[17] = test system: KATO3; details: KATO3 cells, 72 hours; for area under the viability curve (AUC), normalized: 12-point dose-response
Method in brief: as §2

[18] = test system: NCC19; details: NCC19 cells, 72 hours; for area under the viability curve (AUC), normalized: 12-point dose-response
Method in brief: as §2

[19] = test system: SNU668; details: 72 hours; for area under the viability curve (AUC), normalized: SNU668 cells, 12-point dose-response
Method in brief: as §2

[20] = test system: SNU1967; details: SNU1967 cells, 72 hours; for area under the viability curve (AUC), normalized: 12-point dose-response
Method in brief: as §2

[21] = test system: SNU1750; details: 72 hours; for area under the viability curve (AUC), normalized: SNU1750 cells, 12-point dose-response
Method in brief: as §2

[22] = test system: SNU601; details: SNU601 cells, 72 hours; for area under the viability curve (AUC), normalized: 12-point dose-response
Method in brief: as §2

[23] = test system: YCC2; details: YCC2 cells, 72 hours; for area under the viability curve (AUC), normalized: 12-point dose-response
Method in brief: as §2

[24] = test system: Hs746T; details: 72 hours; for area under the viability curve (AUC), normalized: Hs746T cells, 12-point dose-response
Method in brief: as §2

[25] = test system: SNU216; details: 72 hours; for area under the viability curve (AUC), normalized: SNU216 cells, 12-point dose-response
Method in brief: as §1

[26] = test system: AGS; details: 72 hours; for area under the viability curve (AUC), normalized: AGS cells, 12-point dose-response
Method in brief: as §1

[27] = test system: NCC20; details: NCC20 cells, 72 hours; for area under the viability curve (AUC), normalized: 12-point dose-response
Method in brief: as §2

[28] = test system: SNU1; details: SNU1 cells, 72 hours; for area under the viability curve (AUC), normalized: 12-point dose-response
Method in brief: as §2

[29] = test system: FU97; set-up: Average Area Under the Viability Curve (AUC), AUC norm value: scale not given here; details: FU97 cells, 72 hours; for area under the viability curve (AUC), normalized: 12-point dose-response
Method in brief: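 Trapezoidal AUC of a 12-point, DMSO-normalized dose-response curve. Luminescent viability was measured after 72 h of exposure at 37° C to half-log serial dilutions (0.5% DMSO control), dosed 24 h after plating FU97 cells at 5×10^3 per well.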

O=C(/C=C/c1cccc(S(=O)(=O)Nc2ccccc2)c1)NO [Belinostat (PXD101), Belinostat]
Average Area Under the Viability Curve (AUC), AUC norm value [1]: −0.1835 | Average Area Under the Viability Curve (AUC), AUC norm value ([2]; MKN45 cells (non-SEM subtype)): 2.493 | Average Area Under the Viability Curve (AUC), AUC norm value [3]: 1.065 | Average Area Under the Viability Curve (AUC), AUC norm value [4]: 2.329 | Average Area Under the Viability Curve (AUC), AUC norm value [5]: 0.02343 | Average Area Under the Viability Curve (AUC), AUC norm value ([6]; SNU484 cells (SEM subtype)): 0.9966 | Average Area Under the Viability Curve (AUC), AUC norm value [7]: 2.683 | Average Area Under the Viability Curve (AUC), AUC norm value [8]: −0.5011 | Average Area Under the Viability Curve (AUC), AUC norm value [9]: −1.577 | Average Area Under the Viability Curve (AUC), AUC norm value ([10]; SK4 cells (SEM subtype)): −0.3048 | Average Area Under the Viability Curve (AUC), AUC norm value [11]: −0.3952 | Average Area Under the Viability Curve (AUC), AUC norm value [12]: 0.9981 | Average Area Under the Viability Curve (AUC), AUC norm value [13]: −0.225 | Average Area Under the Viability Curve (AUC), AUC norm value [14]: −1.095 | Average Area Under the Viability Curve (AUC), AUC norm value [15]: −1.0681 | Average Area Under the Viability Curve (AUC), AUC norm value ([16]; YCC11 cells (SEM subtype)): −0.5556 | Average Area Under the Viability Curve (AUC), AUC norm value [17]: 0.7544 | Average Area Under the Viability Curve (AUC), AUC norm value [18]: 1.206 | Average Area Under the Viability Curve (AUC), AUC norm value ([19]; SNU668 cells (SEM subtype)): 0.6908 | Average Area Under the Viability Curve (AUC), AUC norm value [20]: −0.3122 | Average Area Under the Viability Curve (AUC), AUC norm value ([21]; SNU1750 cells (SEM subtype)): −0.902 | Average Area Under the Viability Curve (AUC), AUC norm value [22]: 1.495 | Average Area Under the Viability Curve (AUC), AUC norm value [23]: 0.1706 | Average Area Under the Viability Curve (AUC), AUC norm value ([24]; Hs746T cells (SEM subtype)): 0.5598 | Average Area Under the Viability Curve (AUC), AUC norm value ([25]; SNU216 cells (non-SEM subtype)): −0.2541 | Average Area Under the Viability Curve (AUC), AUC norm value ([26]; AGS cells (non-SEM subtype)): −0.9372 | Average Area Under the Viability Curve (AUC), AUC norm value [27]: 0 | Average Area Under the Viability Curve (AUC), AUC norm value [28]: 0.1147 | Average Area Under the Viability Curve (AUC), AUC norm value [29]: −0.9726

CC(C)C[C@H](NC(=O)[C@H](Cc1ccccc1)NC(=O)c1cnccn1)B(O)O [Bortezomib (Velcade), Bortezomib]
area under the viability curve (AUC), normalized [1]: 0 | area under the viability curve (AUC), normalized [2]: 0.1641 | area under the viability curve (AUC), normalized [3]: 2.791 | area under the viability curve (AUC), normalized [4]: 1.081 | area under the viability curve (AUC), normalized [5]: 1.569 | area under the viability curve (AUC), normalized [6]: −0.6338 | area under the viability curve (AUC), normalized [7]: 0.8821 | area under the viability curve (AUC), normalized [8]: 0.06564 | area under the viability curve (AUC), normalized [9]: −0.0987 | area under the viability curve (AUC), normalized [10]: 0.3944 | area under the viability curve (AUC), normalized [11]: −0.416 | area under the viability curve (AUC), normalized [12]: 0.3149 | area under the viability curve (AUC), normalized [13]: 2.346 | area under the viability curve (AUC), normalized [14]: −0.3911 | area under the viability curve (AUC), normalized [15]: −0.6115 | area under the viability curve (AUC), normalized [16]: −0.6649 | area under the viability curve (AUC), normalized [17]: 1.082 | area under the viability curve (AUC), normalized [18]: −0.6969 | area under the viability curve (AUC), normalized [19]: 1.358 | area under the viability curve (AUC), normalized [20]: −0.8453 | area under the viability curve (AUC), normalized [21]: −1.326 | area under the viability curve (AUC), normalized [22]: −0.07383 | area under the viability curve (AUC), normalized [23]: 0.6953 | area under the viability curve (AUC), normalized [24]: −0.9394 | area under the viability curve (AUC), normalized [25]: 0.4223 | area under the viability curve (AUC), normalized [26]: −0.1894 | area under the viability curve (AUC), normalized [27]: −0.1078 | area under the viability curve (AUC), normalized [28]: −0.3028 | area under the viability curve (AUC), normalized [29]: 0.01494

C#Cc1cccc(Nc2ncnc3cc(OC)c(OCCCCCCC(=O)NO)cc23)c1 [CUDC-101]
area under the viability curve (AUC), normalized [1]: −0.5407 | area under the viability curve (AUC), normalized [2]: 1.5 | area under the viability curve (AUC), normalized [3]: 0.7562 | area under the viability curve (AUC), normalized [4]: 0.9348 | area under the viability curve (AUC), normalized [5]: −0.4217 | area under the viability curve (AUC), normalized [6]: 0.5831 | area under the viability curve (AUC), normalized [7]: 1.8155 | area under the viability curve (AUC), normalized [8]: −0.8807 | area under the viability curve (AUC), normalized [9]: 0.427 | area under the viability curve (AUC), normalized [10]: −0.04342 | area under the viability curve (AUC), normalized [11]: −0.7663 | area under the viability curve (AUC), normalized [12]: 0.6267 | area under the viability curve (AUC), normalized [13]: 0.3332 | area under the viability curve (AUC), normalized [14]: 0.1814 | area under the viability curve (AUC), normalized [15]: −0.4289 | area under the viability curve (AUC), normalized [16]: 0.3451 | area under the viability curve (AUC), normalized [17]: 0.683 | area under the viability curve (AUC), normalized [18]: 1.187 | area under the viability curve (AUC), normalized [19]: 0.9508 | area under the viability curve (AUC), normalized [20]: −0.301 | area under the viability curve (AUC), normalized [21]: −1.203 | area under the viability curve (AUC), normalized [22]: −0.1084 | area under the viability curve (AUC), normalized [23]: −0.1991 | area under the viability curve (AUC), normalized [24]: 0.4609 | area under the viability curve (AUC), normalized [25]: −0.5746 | area under the viability curve (AUC), normalized [26]: −0.9569 | area under the viability curve (AUC), normalized [27]: −0.7885 | area under the viability curve (AUC), normalized [28]: 0 | area under the viability curve (AUC), normalized [29]: −0.4688
